# Experiments:
# Human α4β2 nAChR subtype = target: T1, Human α4β2 nAChR subtype (Homo sapiens, UniProt P17787+P43681); assay: [3H]nicotine radioligand binding, membranes from SH-EP1/human α4β2 clonal cells
# T1 construct: expressed in transfected cells; host or cells: SH-EP1 clonal cells
# Procedure: Preparation of membranes from SH-EP1/human α4β2 clonal cells:
# Cell pellets from 40 150 mm culture dishes were pooled, and homogenized by Polytron (Kinematica GmbH, Switzerland) in 20 milliliters of ice-cold preparative buffer. The homogenate was centrifuged at 48,000 g for 20 minutes at 4° C. The resulting pellet was re-suspended in 20 mL of ice-cold preparative buffer and stored at ˜20° C.
# On the day of the assay, the frozen membranes were thawed and spun at 48,000×g for 20 min. The supernatant was decanted and discarded. The pellet was resuspended in Dulbecco's phosphate buffered saline (PBS, Life Technologies) pH 7.4 and homogenized with the Polytron for 6 seconds. Protein concentrations were determined using a Pierce BCA Protein Assay Kit, with bovine serum albumin as the standard (Pierce Chemical Company, Rockford, Ill.).
# Assay: Membrane preparations (approximately 50 μg for human and 200-300 μg protein for rat α4β2) were incubated in PBS (50 μL and 100 μL respectively) in the presence of competitor compound (0.01 nM to 100 μM) and 5 nM [^3H]nicotine for 2-3 hours on ice. Incubation was terminated by rapid filtration on a multi-manifold tissue harvester (Brandel, Gaithersburg, Md.) using GF/B filters presoaked in 0.33% polyethyleneimine (w/v) to reduce non-specific binding. Tissue was rinsed 3 times in PBS, pH 7.4. Scintillation fluid was added to filters containing the washed tissue and allowed to equilibrate. Filters were then counted to determine radioactivity bound to the membranes by liquid scintillation counting (2200CA Tri-Carb LSC, Packard Instruments, 50% efficiency or Wallac Trilux 1450 MicroBeta, 40% efficiency, Perkin Elmer).
# Data were expressed as disintegrations per minute (DPMs). Within each assay, each point had 2-3 replicates. The replicates for each point were averaged and plotted against the log of the drug concentration. IC50, which is the concentration of the compound that produces 50% inhibition of binding, was determined by least squares non-linear regression. Ki values were calculated using the Cheng-Prussof equation (1973): […]
# where N is the concentration of [^3H]nicotine and Kd is the affinity of nicotine (3 nM, determined in a separate experiment).
# [1] = system: animals impaired with scopolamine; assay: Radial Arm Maze (RAM) task, scopolamine-induced cognitive deficits; type: in vivo, rat; details: 3 mg/kg (15.1 μmol/kg) p.o.
# Procedure: Working memory is a cognitive domain known to be impaired in schizophrenia; the Radial Arm Maze task is commonly used to assess potential cognitive benefit derived from the test compounds. Using this assay, Compound A (7,8,9,10-tetrahydro-6H-azepino[4,5-g]quinoxaline) attenuated cognitive deficits induced by scopolamine in an animal model of working memory. Working memory was assessed in a 3 trial radial arm maze (RAM) task. The RAM task was conducted using an automated eight-arm maze (Med Associates, Inc.) The maze was located on a circular table approximately 88 cm above the floor with overhead lighting in a dedicated testing room and large, high contrast geometric shapes on the wall. […] The central platform measured 30.5 cm in diameter with eight arms (9 cm W×45.7 cm L×16.8 cm H) radiating from it. […] Activity on the maze was monitored by tracking quantitative activity (generated by infra-red beam breaks) on the computer interface and monitor screen.
# Following the baseline assessment on day 1 and after re-attainment of test session criterion, animals were assessed for their sensitivity to chemically-induced cognitive impairment using the muscarinic antagonist scopolamine (0.2-0.4 mg/kg; s.c.). A dose of scopolamine was determined for each animal based on the minimum dose that produced significant and reliable cognitive impairment. […]
# [2] = system: mice impaired with scopolamine; assay: Morris Water Maze (MWM) task, scopolamine-impaired; type: in vivo; details: 1 mg/kg (5 μmol/kg) p.o., scopolamine 0.75 mg/kg s.c.
# Procedure: In an animal model of spatial memory, the efficacy of Compound A (7,8,9,10-tetrahydro-6H-azepino[4,5-g]quinoxaline) to attenuate water-maze performances of mice impaired with scopolamine (0.75 mg/kg, s.c.) was evaluated. Following a two-day acclimation period to the maze, mice were trained for 4 days to a platform location in the maze. During the training sessions, each animal was given four trials separated by 5 minutes between each trial. The platform location was constant for each animal. Compound A (1, 3 and 10 mg/kg or 5, 15.1 and 50 μmol/kg, p.o.) was administered 25 minutes prior to each of the four training days. Scopolamine was administered 15 minutes prior to each of the four training days. The probe trial (i.e., no platform present) was conducted on day 5 under drug-free (i.e., water instead of Compound A and saline instead of scopolamine) conditions. In the MWM model, Compound A (1, 3 and 10 mg/kg) was orally administered 25 minutes whereas scopolamine was subcutaneously administered 15 minutes prior to each of the four training days. During training days, each animal was given four trials separated by 5 minutes between trials. The probe trial was conducted on day 5 under drug-free (i.e., water instead of Compound A and saline instead of scopolamine) conditions.
# T1 sequence (P43681 29-627 limits assumed): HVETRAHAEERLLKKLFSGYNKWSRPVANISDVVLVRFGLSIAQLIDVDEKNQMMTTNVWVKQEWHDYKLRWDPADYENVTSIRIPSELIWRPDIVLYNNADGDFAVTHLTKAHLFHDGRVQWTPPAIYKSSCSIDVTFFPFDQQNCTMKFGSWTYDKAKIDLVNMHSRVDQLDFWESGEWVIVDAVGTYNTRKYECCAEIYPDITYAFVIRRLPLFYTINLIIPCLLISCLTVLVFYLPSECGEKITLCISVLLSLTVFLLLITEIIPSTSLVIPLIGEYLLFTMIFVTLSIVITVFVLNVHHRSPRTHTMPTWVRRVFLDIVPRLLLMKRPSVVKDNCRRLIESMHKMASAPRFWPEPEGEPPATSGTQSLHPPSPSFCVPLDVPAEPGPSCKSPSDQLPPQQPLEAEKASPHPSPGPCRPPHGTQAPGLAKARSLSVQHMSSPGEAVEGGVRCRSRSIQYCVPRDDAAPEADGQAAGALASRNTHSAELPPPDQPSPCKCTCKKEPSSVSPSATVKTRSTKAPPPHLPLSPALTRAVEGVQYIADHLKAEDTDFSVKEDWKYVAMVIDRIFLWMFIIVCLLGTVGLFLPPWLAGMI
# T1 sequence (P17787 26-502): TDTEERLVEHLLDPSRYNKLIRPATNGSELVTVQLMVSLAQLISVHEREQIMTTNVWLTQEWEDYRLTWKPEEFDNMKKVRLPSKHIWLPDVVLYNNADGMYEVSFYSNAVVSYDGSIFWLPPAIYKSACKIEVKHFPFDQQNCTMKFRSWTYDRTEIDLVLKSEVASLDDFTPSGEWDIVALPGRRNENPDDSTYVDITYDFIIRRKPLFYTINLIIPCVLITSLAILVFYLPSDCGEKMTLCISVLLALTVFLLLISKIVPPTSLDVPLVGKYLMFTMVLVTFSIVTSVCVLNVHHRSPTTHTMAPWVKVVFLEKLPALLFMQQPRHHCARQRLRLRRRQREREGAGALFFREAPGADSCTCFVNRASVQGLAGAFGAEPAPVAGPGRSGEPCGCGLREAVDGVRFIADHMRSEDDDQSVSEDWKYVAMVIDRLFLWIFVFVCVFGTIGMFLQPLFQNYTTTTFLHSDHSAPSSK
compound,measurement,setting,value
"c1cnc2cc3c(cc2n1)CCNCC3 [Compound A, 7,8,9,10-tetrahydro-6H-azepino[4,5-g]quinoxaline]",Ki,Human α4β2 nAChR subtype,10 nM
same,"effect on scopolamine-induced cognitive deficits, RAM",[1],attenuated scopolamine-induced cognitive deficits
same,"effect on scopolamine-induced cognitive deficits, MWM",[2],reverse scopolamine-induced cognitive deficits
